For one assay, the target named is T1, K89R/K248R HMGCR (Cricetulus griseus, UniProt P00347, K248R/K89R).
T1 sequence (P00347 1-887 K89R/K248R): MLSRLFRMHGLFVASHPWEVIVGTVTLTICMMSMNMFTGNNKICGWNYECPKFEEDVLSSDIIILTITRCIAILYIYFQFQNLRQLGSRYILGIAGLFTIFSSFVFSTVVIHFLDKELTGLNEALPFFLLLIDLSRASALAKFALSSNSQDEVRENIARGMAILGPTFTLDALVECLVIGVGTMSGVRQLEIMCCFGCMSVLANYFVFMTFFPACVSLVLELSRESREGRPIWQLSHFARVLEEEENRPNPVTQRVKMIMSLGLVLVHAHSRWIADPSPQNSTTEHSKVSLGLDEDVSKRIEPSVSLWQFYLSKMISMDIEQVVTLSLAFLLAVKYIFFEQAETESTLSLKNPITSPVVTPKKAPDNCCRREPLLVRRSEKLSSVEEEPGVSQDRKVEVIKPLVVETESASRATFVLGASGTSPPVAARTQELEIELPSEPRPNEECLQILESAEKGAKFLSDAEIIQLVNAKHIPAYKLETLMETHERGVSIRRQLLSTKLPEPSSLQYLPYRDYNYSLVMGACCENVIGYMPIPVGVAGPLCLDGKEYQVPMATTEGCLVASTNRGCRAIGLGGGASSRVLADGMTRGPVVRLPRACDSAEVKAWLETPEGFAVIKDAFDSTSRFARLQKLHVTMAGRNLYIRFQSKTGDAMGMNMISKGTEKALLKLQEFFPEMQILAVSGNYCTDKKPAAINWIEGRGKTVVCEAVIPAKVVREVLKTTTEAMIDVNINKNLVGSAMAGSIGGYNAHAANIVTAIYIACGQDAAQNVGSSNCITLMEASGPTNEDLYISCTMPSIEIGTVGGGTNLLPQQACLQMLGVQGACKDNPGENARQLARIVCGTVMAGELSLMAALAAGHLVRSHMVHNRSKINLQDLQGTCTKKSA
Put plainly: Degradation of transfected K89R/K248R HMGCR in CHO-7 cells. Format: cell-based. Further details: expressed in transfected cells; host or cells: CHO-7 (A20). Conditions: transfected CHO-7 cells, 5 h. As for the experimental part: HMGCR protein of DMSO-treated cells was defined as 100. […] Lysates were immunoprecipitated and pellets were probed for anti-ubiquitin (P4D1) and anti-HMGCR (A9). e CHO-7 cells were transfected with indicated plasmids and treated as in d. Lysates were immunoprecipitated with anti-Flag M2 beads, and pellets were probed for anti-ubiquitin (HA) and anti-HMGCR (Flag). f CHO-7 cells were transfected with indicated plasmids, then treated with Cmpd 81 for 5 h. […] Data are from three independent experiments and presented as mean ± SD. Source data are provided as a Source Data File.
Cells were harvested and homogenized in the RIPA buffer (50 mM Tris-HCl, pH 8.0, 150 mM NaCl, 2 mM MgCl2, 1.5% NP-40, 0.1% SDS, and 0.5% sodium deoxycholate) supplemented with protease cocktail inhibitor, 10 μM MG-132, 10 μg ml^−1 leupeptin and 1 mM phenylmethylsulfonyl fluoride. The protein concentrations of lysates were determined using BCA method (Beyotime). […] Western blot images were captured by Amersham Imager 600 (GE Healthcare), and integrated optical intensities of each band were quantified by Image-Pro Plus 6 software (Media Cybernetics). […]

The subject of another assay is LXR signaling pathway. The assay is described as follows: RT-qPCR of LXR target genes (SREBP-1c, ABCA1, ABCG8) in Huh-7 cells. Format: cell-based, human. Conditions: 16 h. On the procedure: Cells were treated as described in corresponding figure legends, then total RNA was extracted from cells or mouse livers using TRI Reagent (T9424, Sigma-Aldrich). Equal amounts of RNA from cells or mice receiving the same treatment were pooled were used for cDNA synthesis with oligo dT and reverse transcriptase MLV (Promega). Gene expression was analyzed by quantitative real-time PCR on a Stratagene Mx30005PTM Q-PCR Systems. The primers used were listed in Supplementary Tables 2–4. […]
pathway. a-c Huh-7 cells were treated with indicated compounds for 16 h and then harvested for total RNA isolation and RT-qPCR. Cells treated with LXR agonist T0901317 w ere used as positive controls. The relative mRNA levels of SREBP -1c (a), ABCA1 (b) and ABCG8 (c) were quantified . GAPDH was the reference gene. The relative mRNA level in DMSO-treated cells was defined as 1. Data are from 3 independent experiments and presented as mean ± SD.
(§1) (1 picture or pasted object on this page, not shown here)
A general note: In qPCR the cycle at which signal appears reflects the starting amount.

In a further assay the target is T2, HMGCR (TM1-8)-GFP (Cricetulus griseus, UniProt P00347).
T2 sequence (P00347 1-346): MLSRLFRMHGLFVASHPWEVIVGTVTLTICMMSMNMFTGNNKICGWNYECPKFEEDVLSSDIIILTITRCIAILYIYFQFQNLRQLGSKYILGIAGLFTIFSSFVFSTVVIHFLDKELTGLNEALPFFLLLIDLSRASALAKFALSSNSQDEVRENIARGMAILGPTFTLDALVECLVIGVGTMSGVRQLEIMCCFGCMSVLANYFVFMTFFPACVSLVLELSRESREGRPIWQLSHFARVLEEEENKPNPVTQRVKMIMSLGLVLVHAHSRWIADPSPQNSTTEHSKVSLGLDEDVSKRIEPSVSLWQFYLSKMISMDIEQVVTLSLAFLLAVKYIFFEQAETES

A further assay concerns Hmgcr mRNA. The assay is described as follows: RT-qPCR of exogenous WT and mutated Hmgcr mRNA in Huh7 cells. Format: cell-based. The settings on record: lovastatin. As for the experimental part:
Cells were treated as described in corresponding figure legends, then total RNA was extracted from cells or mouse livers using TRI Reagent (T9424, Sigma-Aldrich). Equal amounts of RNA from cells or mice receiving the same treatment were pooled were used for cDNA synthesis with oligo dT and reverse transcriptase MLV (Promega). Gene expression was analyzed by quantitative real-time PCR on a Stratagene Mx30005PTM Q-PCR Systems. The primers used were listed in Supplementary Tables 2–4.
a CHO-7 cells were treated with or without 1 μM lovastatin in medium B with 5%
LDPS and 50 μM mevalonate for 16 h, and harvested for total RNA isolation and
RT-qPCR. Quantifications of the relative mRNA levels of indicated SREBP target
as §1

Consider two compounds from PMC6277434, “Discovery of a potent HMG-CoA reductase degrader that eliminates statin-induced reductase accumulation and lowers cholesterol” (Nature Communications, 2018).

SMILES strings stand for the structures.

Experimental for HMGCR (TM1-8)-GFP: We thus generated a cell line stably expressing the transmembrane domain of HMGCR fused with green fluorescent protein (GFP) as a reporter (HMGCR (TM1-8)-GFP) (Fig. 2a).
CHO-7 cells were transfected with pCMV-HMGCR (TM1-8)-GFP using FuGENE HD. Twenty-four hours, cells were switched to medium B supplemented with 5% FBS and selected in the presence of 1 mg ml^−1 G418 for 2 weeks. Surviving colonies were isolated and confirmed for GFP expression by immunoblotting and immunofluorescence. The resulting CHO-7/HMGCR (TM1-8)-GFP stable cell line (CHG) was maintained in medium B supplemented with 5% FBS and 200 μg ml^−1 G418.
CHG cells were treated as described in figure legends. Briefly, cells were seeded at day 0 in 96-well black plate (3904, Corning) at a density of 1.5 × 10^4 cells per well, in medium B containing with 5% LPDS. Day 1, corresponding compounds were added as figure legends described in medium B with 5% LPDS, 1 μM lovastatin, 50 μM sodium mevalonate for 16 h. Then cells were fixed with 4% paraformaldehyde for 20 min, washed with PBS for three times, and stained with 2 μg ml^−1 Hoechst 33342.
The fluorescent images (GFP and Hoechst channel) were captured using an Operatta High-Content Imaging System (PerkinElmer) with a ×20 objective. The cytoplasmic GFP fluorescence was measured with the Harmony Software (PerkinElmer). Five random selected filed per well were captured, and about 3000 cells were used to determine the mean cytoplasmic GFP fluorescent intensity per cell after subtracting background GFP intensity. The average GFP intensity of DMSO-treated cells was defined as 100.

With `C=CCC(O)(CC=C)CCCC(C)C1CCC2C3C(O)C=C4C(C)(C)C(O)CCC4(C)C3CCC12C` (stereo not shown) [Cmpd 81], the “degradation of K89R/K248R HMGCR” value at K89R/K248R HMGCR is “blunted the effect”. For the same compound, in the assay on LXR signaling pathway, the “expression of LXR target genes (SREBP-1c, ABCA1 and ABCG8) mRNA” value is “did not induce the expression”. The compound also showed a DC50 on HMGCR (TM1-8)-GFP of 410 nM.

Regarding `CC[C@H](C)C(=O)O[C@H]1C[C@@H](C)C=C2C=C[C@H](C)[C@H](CC[C@@H]3C[C@@H](O)CC(=O)O3)[C@H]21` [Lovastatin, lovastatin], the “mRNA levels of both WT and mutated Hmgcr” value in the assay with Hmgcr mRNA is listed as “did not show obvious change”.
